Measurements published in the NIST ThermoML archive (doi:10.1021/je800653d).
Numbers after ± are expanded uncertainties.

Assay: xn = mol fraction of the nth substance listed
Details: 101 kPa, Liquid; for speed of sound: Linear variable-path acoustic interferometer; for viscosity: Capillary tube (Ostwald / Ubbelohde) method

O=S1(=O)CCCC1 [sulfolane] + CCOC(C)=O
Details	mass density [kg/m3]	speed of sound [m/s]	viscosity [mPa·s]
298.15 K, x1 = 1	1263.9 ± 1.3	1601 ± 7	–
303.15 K, x1 = 0.0218	897.8 ± 0.8	1134 ± 5	0.4006 ± 0.0043
303.15 K, x1 = 0.1511	950.7 ± 0.9	1196 ± 5	0.5566 ± 0.0056
303.15 K, x1 = 0.2748	1001.1 ± 0.9	1251 ± 5	0.7832 ± 0.0076
303.15 K, x1 = 0.4012	1052.3 ± 1	1313 ± 6	1.118 ± 0.01
303.15 K, x1 = 0.5068	1094 ± 1	1366 ± 6	1.5 ± 0.014
303.15 K, x1 = 0.598	1127.6 ± 1.1	1408 ± 6	2.054 ± 0.018
303.15 K, x1 = 0.7331	1175.4 ± 1.2	1472 ± 6	3.211 ± 0.028
303.15 K, x1 = 0.8548	1215.5 ± 1.2	1524 ± 6	5.285 ± 0.045
303.15 K, x1 = 0.9799	1255.5 ± 1.3	1579 ± 7	9.205 ± 0.073
303.15 K, x1 = 1	1261.8 ± 1.3	1588 ± 7	10.03 ± 0.079
308.15 K, x1 = 0.0218	893.2 ± 0.8	1121 ± 5	0.3819 ± 0.0041
308.15 K, x1 = 0.1511	947.1 ± 0.9	1185 ± 5	0.5275 ± 0.0054
308.15 K, x1 = 0.2748	997.7 ± 0.9	1241 ± 5	0.73 ± 0.0071
308.15 K, x1 = 0.4012	1048.8 ± 1	1301 ± 5	1.042 ± 0.0098
308.15 K, x1 = 0.5068	1090.3 ± 1.1	1355 ± 6	1.394 ± 0.013
308.15 K, x1 = 0.598	1123.9 ± 1.1	1398 ± 6	1.882 ± 0.017
308.15 K, x1 = 0.7331	1171.5 ± 1.2	1465 ± 6	2.923 ± 0.026
308.15 K, x1 = 0.8548	1211.6 ± 1.2	1515 ± 6	4.756 ± 0.041
308.15 K, x1 = 0.9799	1251.9 ± 1.3	1569 ± 7	8.078 ± 0.065
308.15 K, x1 = 1	1257 ± 1.3	1576 ± 7	8.795 ± 0.07
313.15 K, x1 = 0.0218	885.1 ± 0.8	1092 ± 5	0.3633 ± 0.004
313.15 K, x1 = 0.1511	939.5 ± 0.9	1154 ± 5	0.4961 ± 0.0051
313.15 K, x1 = 0.2748	989.9 ± 1	1216 ± 5	0.6874 ± 0.0067
313.15 K, x1 = 0.4012	1040.5 ± 1	1283 ± 5	0.9781 ± 0.0092
313.15 K, x1 = 0.5068	1082.1 ± 1.1	1346 ± 6	1.292 ± 0.012
313.15 K, x1 = 0.598	1116.7 ± 1.1	1397 ± 6	1.752 ± 0.016
313.15 K, x1 = 0.7331	1164.7 ± 1.2	1464 ± 6	2.7 ± 0.024
313.15 K, x1 = 0.8548	1205.5 ± 1.3	1513 ± 6	4.281 ± 0.037
313.15 K, x1 = 0.9799	1245.8 ± 1.3	1555 ± 6	7.092 ± 0.058
313.15 K, x1 = 1	1251.6 ± 1.3	1558 ± 7	7.837 ± 0.063

O=S1(=O)CCCC1 [sulfolane] + CCCCOC(C)=O
Details	mass density, 303.15 K [kg/m3]	mass density, 308.15 K [kg/m3]	mass density, 313.15 K [kg/m3]	speed of sound, 303.15 K [m/s]	speed of sound, 308.15 K [m/s]	speed of sound, 313.15 K [m/s]	viscosity, 303.15 K [mPa·s]	viscosity, 308.15 K [mPa·s]	viscosity, 313.15 K [mPa·s]
x1 = 0.0311	880.8 ± 0.8	876.9 ± 0.8	871.8 ± 0.8	1182 ± 5	1164 ± 5	1146 ± 5	0.6426 ± 0.0064	0.6016 ± 0.006	0.5637 ± 0.0057
x1 = 0.1903	932.3 ± 0.8	928.6 ± 0.9	923.5 ± 0.9	1232 ± 5	1212 ± 5	1193 ± 5	0.895 ± 0.0085	0.8248 ± 0.0079	0.7699 ± 0.0074
x1 = 0.3402	985.2 ± 0.9	980.9 ± 0.9	975.4 ± 0.9	1280 ± 5	1261 ± 5	1245 ± 5	1.242 ± 0.011	1.145 ± 0.011	1.066 ± 0.01
x1 = 0.474	1036.1 ± 1	1030.9 ± 1	1025.4 ± 1	1327 ± 6	1316 ± 6	1301 ± 5	1.722 ± 0.016	1.577 ± 0.014	1.457 ± 0.013
x1 = 0.5789	1078.5 ± 1	1072.7 ± 1	1067.1 ± 1.1	1372 ± 6	1366 ± 6	1354 ± 6	2.3 ± 0.021	2.082 ± 0.019	1.903 ± 0.017
x1 = 0.6793	1120.5 ± 1.1	1114.4 ± 1.1	1108.8 ± 1.1	1424 ± 6	1418 ± 6	1408 ± 6	3.027 ± 0.027	2.717 ± 0.024	2.471 ± 0.022
x1 = 0.7887	1168.2 ± 1.1	1162.1 ± 1.2	1156.6 ± 1.2	1477 ± 6	1468 ± 6	1466 ± 6	4.275 ± 0.037	3.837 ± 0.034	3.436 ± 0.03
x1 = 0.8876	1212.2 ± 1.2	1207.1 ± 1.2	1201.5 ± 1.3	1528 ± 6	1520 ± 6	1510 ± 6	6.2 ± 0.052	5.499 ± 0.047	4.902 ± 0.042
x1 = 0.9836	1254.2 ± 1.3	1250.1 ± 1.3	1244.8 ± 1.3	1577 ± 7	1572 ± 7	1556 ± 6	9.049 ± 0.072	7.925 ± 0.064	6.987 ± 0.058
x1 = 1	1261.8 ± 1.3	1257 ± 1.3	1251.6 ± 1.3	1588 ± 7	1576 ± 7	1558 ± 7	10.03 ± 0.079	8.795 ± 0.07	7.837 ± 0.063

O=S1(=O)CCCC1 [sulfolane] + CCCOC(C)=O
Details	mass density, 303.15 K [kg/m3]	mass density, 308.15 K [kg/m3]	mass density, 313.15 K [kg/m3]	speed of sound, 303.15 K [m/s]	speed of sound, 308.15 K [m/s]	speed of sound, 313.15 K [m/s]	viscosity, 303.15 K [mPa·s]	viscosity, 308.15 K [mPa·s]	viscosity, 313.15 K [mPa·s]
x1 = 0.0247	886.9 ± 0.8	881.9 ± 0.8	875.7 ± 0.8	1154 ± 5	1147 ± 5	1134 ± 5	0.5146 ± 0.0056	0.4827 ± 0.005	0.4554 ± 0.0048
x1 = 0.1746	941.4 ± 0.8	935.8 ± 0.9	929.8 ± 0.9	1214 ± 5	1203 ± 5	1189 ± 5	0.726 ± 0.0071	0.6764 ± 0.0067	0.6342 ± 0.0063
x1 = 0.311	992.9 ± 0.9	986.9 ± 0.9	981.3 ± 1	1266 ± 5	1257 ± 5	1243 ± 5	1.019 ± 0.0096	0.9439 ± 0.0089	0.8781 ± 0.0084
x1 = 0.4416	1043.1 ± 1	1037.9 ± 1	1032.4 ± 1	1322 ± 6	1312 ± 6	1301 ± 5	1.438 ± 0.013	1.325 ± 0.012	1.222 ± 0.011
x1 = 0.5468	1084.6 ± 1	1079.6 ± 1.1	1074 ± 1.1	1368 ± 6	1359 ± 6	1352 ± 6	1.922 ± 0.017	1.762 ± 0.016	1.617 ± 0.015
x1 = 0.6489	1124.9 ± 1.1	1120.1 ± 1.1	1114.1 ± 1.1	1419 ± 6	1410 ± 6	1401 ± 6	2.624 ± 0.023	2.375 ± 0.021	2.176 ± 0.019
x1 = 0.7639	1169.5 ± 1.1	1164.7 ± 1.2	1159.4 ± 1.2	1474 ± 6	1469 ± 6	1458 ± 6	3.92 ± 0.034	3.502 ± 0.031	3.185 ± 0.028
x1 = 0.8733	1212.3 ± 1.2	1207.6 ± 1.2	1202.2 ± 1.3	1530 ± 6	1521 ± 6	1510 ± 6	5.863 ± 0.049	5.217 ± 0.045	4.662 ± 0.04
x1 = 0.9823	1255.4 ± 1.3	1251 ± 1.3	1245.4 ± 1.3	1579 ± 7	1573 ± 7	1555 ± 6	9.305 ± 0.074	8.132 ± 0.065	7.222 ± 0.059
x1 = 1	1261.8 ± 1.3	1257 ± 1.3	1251.6 ± 1.3	1588 ± 7	1576 ± 7	1558 ± 7	10.03 ± 0.079	8.795 ± 0.07	7.837 ± 0.063
